Values of other authors, collected in PMC4447334 (Journal of the American Chemical Society, 2015).

What was measured:
[1] = target: T1, PAD3 (Homo sapiens, UniProt Q9ULW8); details: exact value reported
T1 sequence (Q9ULW8 1-664): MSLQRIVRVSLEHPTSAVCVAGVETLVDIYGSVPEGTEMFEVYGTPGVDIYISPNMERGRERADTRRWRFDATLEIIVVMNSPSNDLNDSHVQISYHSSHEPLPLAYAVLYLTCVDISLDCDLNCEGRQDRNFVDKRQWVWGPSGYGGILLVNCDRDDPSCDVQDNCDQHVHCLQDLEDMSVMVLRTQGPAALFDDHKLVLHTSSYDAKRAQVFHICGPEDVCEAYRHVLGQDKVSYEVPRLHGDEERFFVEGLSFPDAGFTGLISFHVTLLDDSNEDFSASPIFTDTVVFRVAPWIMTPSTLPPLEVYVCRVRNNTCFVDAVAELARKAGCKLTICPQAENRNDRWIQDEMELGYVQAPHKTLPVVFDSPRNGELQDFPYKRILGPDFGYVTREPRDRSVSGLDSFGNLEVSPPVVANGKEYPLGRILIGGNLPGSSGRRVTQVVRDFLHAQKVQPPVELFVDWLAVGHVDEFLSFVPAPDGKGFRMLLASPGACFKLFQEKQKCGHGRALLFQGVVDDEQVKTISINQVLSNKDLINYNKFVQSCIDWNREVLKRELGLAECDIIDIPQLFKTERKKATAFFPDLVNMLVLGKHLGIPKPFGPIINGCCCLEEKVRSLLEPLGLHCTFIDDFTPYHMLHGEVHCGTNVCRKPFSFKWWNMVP

[2] = target: T2, PAD1 (Homo sapiens, UniProt Q9ULC6); details: approximate, from chart in Figure 6A
T2 sequence (Q9ULC6 1-663): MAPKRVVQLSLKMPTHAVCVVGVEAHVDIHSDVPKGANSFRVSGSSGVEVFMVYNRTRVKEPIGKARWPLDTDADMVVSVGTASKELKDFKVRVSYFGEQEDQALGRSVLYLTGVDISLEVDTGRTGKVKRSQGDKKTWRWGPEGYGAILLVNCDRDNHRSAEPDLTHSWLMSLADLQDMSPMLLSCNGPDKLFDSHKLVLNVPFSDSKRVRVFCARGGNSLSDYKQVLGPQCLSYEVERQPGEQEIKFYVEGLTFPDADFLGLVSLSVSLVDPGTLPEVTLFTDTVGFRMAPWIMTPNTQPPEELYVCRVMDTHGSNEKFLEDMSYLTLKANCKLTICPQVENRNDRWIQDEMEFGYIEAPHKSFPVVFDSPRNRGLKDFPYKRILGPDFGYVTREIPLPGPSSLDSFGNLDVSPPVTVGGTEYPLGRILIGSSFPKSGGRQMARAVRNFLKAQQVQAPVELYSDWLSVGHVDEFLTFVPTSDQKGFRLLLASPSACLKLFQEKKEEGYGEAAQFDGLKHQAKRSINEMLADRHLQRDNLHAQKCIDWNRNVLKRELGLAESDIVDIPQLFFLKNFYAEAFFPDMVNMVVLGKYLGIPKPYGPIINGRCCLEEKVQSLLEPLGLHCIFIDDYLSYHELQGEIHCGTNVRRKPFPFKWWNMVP

[3] = target: PAD4 (Homo sapiens, UniProt Q9UM07); details: approximate, from chart in Figure 6A
Sequence of PAD4 (Q9UM07 whole entry): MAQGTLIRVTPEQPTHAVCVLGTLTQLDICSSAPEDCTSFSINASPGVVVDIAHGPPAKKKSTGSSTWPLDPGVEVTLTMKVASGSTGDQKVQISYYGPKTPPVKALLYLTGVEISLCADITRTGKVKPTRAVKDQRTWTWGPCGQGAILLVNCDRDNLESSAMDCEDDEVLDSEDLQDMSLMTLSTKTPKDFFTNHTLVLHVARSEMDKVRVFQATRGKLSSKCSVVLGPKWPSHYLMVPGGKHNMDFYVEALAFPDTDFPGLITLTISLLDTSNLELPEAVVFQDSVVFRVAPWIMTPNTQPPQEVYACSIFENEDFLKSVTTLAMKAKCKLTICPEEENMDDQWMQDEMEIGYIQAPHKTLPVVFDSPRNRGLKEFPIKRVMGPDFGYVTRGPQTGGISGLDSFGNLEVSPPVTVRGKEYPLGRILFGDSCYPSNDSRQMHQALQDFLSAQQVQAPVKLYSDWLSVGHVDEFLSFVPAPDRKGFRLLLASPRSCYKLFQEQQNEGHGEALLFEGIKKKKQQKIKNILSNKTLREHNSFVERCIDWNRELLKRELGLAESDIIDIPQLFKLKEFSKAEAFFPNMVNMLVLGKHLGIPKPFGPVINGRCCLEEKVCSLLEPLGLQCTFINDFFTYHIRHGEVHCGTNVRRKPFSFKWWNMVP

IC50 [1]: 65 µM | IC50 [2]: ~250 µM | IC50 [3]: ~625 µM
SMILES: N=C(CF)NCCCC[C@H](NC(=O)c1ccccc1)C(N)=O [F4-amidine]
